{"source": "paper PMC10145285", "about": "“Diverse Biological Activity of Benzofuroxan/Sterically Hindered Phenols Hybrids” (Pharmaceuticals, 2023)", "key": {"MCF-7": {"tested_on": "MCF-7", "experiment": "cells", "assay_type": "cell-based, human"}, "WI38": {"tested_on": "WI38", "experiment": "cells", "assay_type": "cell-based", "details": "Homo sapiens, WI-38, 48 h, read-out: IC50, WI38"}, "HuTu 80": {"tested_on": "HuTu 80", "experiment": "cells", "details": "Homo sapiens, HuTu80, 48 h, read-out: IC50, HuTu 80"}, "[1]": {"tested_on": "Bacillus cereus ATCC 10702 (Bc)", "experiment": "Antimicrobial serial microdilution, Bc", "assay_type": "cell-based"}, "T98G": {"tested_on": "T98G", "experiment": "cells", "assay_type": "cell-based", "details": "Homo sapiens, 48 h, read-out: IC50, T98G"}, "PC3": {"tested_on": "PC3", "experiment": "cells", "assay_type": "cell-based", "details": "Homo sapiens, PC-3, 48 h, read-out: IC50, PC3"}, "A549": {"tested_on": "A549", "experiment": "cells", "details": "Homo sapiens, A549, 48 h, read-out: IC50, A549"}, "[2]": {"tested_on": "Enterococcus faecalis ATCC 29212 (Ef)", "experiment": "Antimicrobial serial microdilution, Ef", "assay_type": "cell-based"}, "[3]": {"tested_on": "HuTu 80, MCF-7 and human cervical carcinoma cell lines", "experiment": "cells", "assay_type": "cell-based", "details": "120 h, read-out: IC50 range over HuTu 80, MCF-7 and human cervical carcinoma lines"}, "Chang Liver": {"tested_on": "Chang Liver", "experiment": "cells", "details": "Homo sapiens, 48 h, read-out: IC50, Chang Liver"}, "M-HeLa [4]": {"tested_on": "M-HeLa"}, "M-HeLa [5]": {"tested_on": "M-HeLa", "experiment": "cells", "details": "Homo sapiens, 48 h, read-out: IC50, M-HeLa"}, "MRSA-1": {"tested_on": "MRSA-1", "experiment": "Antimicrobial serial microdilution, MRSA-1", "assay_type": "cell-based, Staphylococcus aureus", "details": "serial microdilution; strain resistant to β-lactams and fluoroquinolones"}, "A375": {"tested_on": "A375", "experiment": "cells", "assay_type": "cell-based", "details": "Homo sapiens, A-375, 48 h, read-out: IC50, A375"}, "MRSA-2": {"tested_on": "MRSA-2", "experiment": "Antimicrobial serial microdilution, MRSA-2", "assay_type": "cell-based, Staphylococcus aureus", "details": "serial microdilution; strain resistant only to β-lactams"}, "[6]": {"tested_on": "Staphylococcus aureus ATCC 6538P FDA 209P (Sa)", "experiment": "Antimicrobial serial microdilution, Sa", "assay_type": "cell-based"}, "PANC-1": {"tested_on": "PANC-1", "experiment": "cells", "details": "Homo sapiens, PANC-1, 48 h, read-out: IC50, PANC-1"}, "M-HeLa cells": {"tested_on": "M-HeLa cells", "experiment": "Intracellular ROS, CellROX Deep Red flow cytometry", "assay_type": "cell-based, human", "details": "concentration equal to IC50 cytotoxicity on M-HeLa, 48 h; result in words", "description": "Apoptosis can be induced in various ways, including an increase in the production of reactive oxygen species (ROS) in the cell, with subsequent oxidative stress and destruction of membrane lipids, proteins and nucleic acids. Thus, chemical compounds that disturb the redox balance and lead to the production and accumulation of ROS are potential agents for targeting the transformed cells. To understand the possible synergy between the different components of these hybrid agents, we compared the ROS production for compounds 4c, 5d, starting phenols 2c, 2d and furoxan 3 at the concentration of IC50 cytotoxicity on M-HeLa cells (Figure 4). A significant increase in CellROX® Deep Red fluorescence intensity indicates an increase in ROS production.\nDetection of Intracellular ROS. […] ROS generation was investigated using flow cytometry assay and CellROX® Deep Red flow cytometry kit. For this M-HeLa cells were harvested at 2000 rpm for 5 min and then washed twice with ice-cold PBS, followed by resuspension in 0.1 mL of medium without FBS, to which was added 0.2 μL of CellROX® Deep Red and incubated at 37 °C for 30 min. After three times washing the cells and suspending them in PBS, the production of ROS in the cells was immediately monitored using flow cytometer (Guava easy Cyte, Merck, Rahway, NJ, USA)."}}, "data": [{"smiles": "CC(C)OP(=O)(OC(C)C)C(c1cc(C(C)(C)C)c(O)c(C(C)(C)C)c1)c1ccc(Nc2c([N+](=O)[O-])cc([N+](=O)[O-])c3no[n+]([O-])c23)nc1N", "note": "(stereo not shown) [4c, 7-((6-amino-5-((3,5-di-tert-butyl-4-hydroxyphenyl)(diisopropoxyphosphoryl)methyl)pyridin-2-yl)amino)-4,6-dinitrobenzo[c][1,2,5]oxadiazole 1-oxide]", "values": [{"measurement": "Times more active than the starting SHP, MCF-7", "setting": "MCF-7", "result": 20, "unit": "times"}, {"measurement": "IC50", "setting": "MCF-7; Homo sapiens, MCF7, 48 h, read-out: IC50, MCF-7", "result": "1100 ± 100", "unit": "nM"}, {"measurement": "IC50", "setting": "WI38", "result": "2000 ± 100", "unit": "nM"}, {"measurement": "IC50", "setting": "HuTu 80", "result": "900 ± 70", "unit": "nM"}, {"measurement": "Minimum Inhibitory Concentration (MIC), Bc", "setting": "[1]", "result": "-"}, {"measurement": "IC50", "setting": "T98G", "result": "2200 ± 100", "unit": "nM"}, {"measurement": "IC50", "setting": "PC3", "result": "1200 ± 1000", "unit": "nM"}, {"measurement": "IC50", "setting": "A549", "result": "900 ± 80", "unit": "nM"}, {"measurement": "Minimum Inhibitory Concentration (MIC), Ef", "setting": "[2]", "result": "-"}, {"measurement": "IC50", "setting": "[3]", "result": "900 to 5900", "unit": "nM"}, {"measurement": "IC50", "setting": "Chang Liver", "result": "2100 ± 700", "unit": "nM"}, {"measurement": "Times more active than the starting SHP, M-HeLa", "setting": "M-HeLa [4]", "result": 40, "unit": "times"}, {"measurement": "IC50", "setting": "M-HeLa [5]", "result": "900 ± 70", "unit": "nM"}, {"measurement": "Minimum Inhibitory Concentration (MIC), MRSA-1", "setting": "MRSA-1", "result": "-"}, {"measurement": "IC50", "setting": "A375", "result": "2900 ± 200", "unit": "nM"}, {"measurement": "Minimum Inhibitory Concentration (MIC), MRSA-2", "setting": "MRSA-2", "result": "-"}, {"measurement": "Minimum Inhibitory Concentration (MIC), Sa", "setting": "[6]", "result": "-"}, {"measurement": "IC50", "setting": "PANC-1", "result": "11200 ± 900", "unit": "nM"}, {"measurement": "ROS production (CellROX Deep Red fluorescence intensity)", "setting": "M-HeLa cells", "result": "ROS production significantly exceeds that for the original phenol 2c and furoxan 3"}]}]}
